Literature values in article PMC10046460, “Phase I Trial of [^99mTc]Tc-maSSS-PEG2-RM26, a Bombesin Analogue Antagonistic to Gastrin-Releasing Peptide Receptors (GRPRs), for SPECT Imaging of GRPR Expression in Malignant Tumors” (Cancers, 2023).

Experiments:
[1] = test system: prostate-specific membrane antigen (PSMA); conditions: PCa patients; cited from earlier work
Protocol: Prostate and breast cancers are the most common sex-related malignancies, with an increasing incidence in many countries over the past 30 years. Accurate diagnosis and staging of the diseases are important for the prognosis and determination of treatment tactics for these pathologies. […] Many derivatives of this pseudo-peptide were tested clin ...

[2] = in vivo; cited from earlier work
Excerpt: The biodistribution of [^99mTc]Tc-maSSS-PEG2-RM26 was characterized by the rapid whole body elimination and blood clearance of unbound tracers (Figure 4). This decreases the background caused by the blood-borne activity and creates preconditions for high-contrast imaging. The clinical trial confirmed the major feature of the tracer found in the preclinical studies, a substantial degree of hepatobiliary excretion. The hepatobiliary excretion of [^99mTc]Tc-maSSS-PEG2-RM26 was the highest among other GRPR antagonists tested in clinics and was similar to the excretion of [^99mTc]Tc-RP527, a ...

| Compound | sensitivity in the detection of LN metastases [1] [%] | route of excretion [2] |
| --- | --- | --- |
| O=C(O)CC[C@H](NC(=O)N[C@@H](CCCCNC(=O)c1ccc([18F])nc1)C(=O)O)C(=O)O [^18F-DCFPyL] | 40 | – |
| O=C([O-])CN(CCN(CC(=O)[O-])Cc1cc(CCC(=O)NCCCCCC(=O)NCCCC[C@H](NC(=O)N[C@@H](CCC(=O)O)C(=O)O)C(=O)O)ccc1[O-])Cc1cc(CCC(=O)O)ccc1[O-].[68Ga+3].[OH3+] [^68Ga-PSMA] | 61 | – |
| D-Phe-Gln-Trp-Ala-Val-Sar-His-Sta-Leu-NHEt [[^99mTc]Tc-DB15, ^99mTc-labeled BN antagonist for SPECT, tested in two patients] | – | Predominantly renal excretion |
